Experimental data: patent US12564650B2, “Carbonic anhydrase IX-targeting radioactive diagnostic and therapeutic medicament and method for preparing same” (NORROY BIOSCIENCE CO., LTD., priority 2022, dated 2026)

Tested on: 786-O tumor (human renal clear cell adenocarcinoma cells)
Assay: Competitive inhibition assay in 786-O mouse model
Format: in vivo, NOD-SCID mice
Conditions: cold medicament 40 times the mass of hot medicament, 30 minutes before; scan 1 hour
Excerpt: The experimental 786-O animal model was provided by Biaodu Baiao Biotechnology (Shanghai) Co., Ltd. The model was a 786-O tumor subcutaneous heterotopic transplant tumor model established based on NOD-SCID mice. This model was a mouse model constructed for human renal clear cell adenocarcinoma cells. Two animal models were randomly selected and injected with cold medicament NYM0005 through tail vein. The injection dose was 40 times the mass of the injected hot medicament (^68Ga-NYM0005). The order of administration was as follow: injecting the hot medicament ^68Ga-NYM0005 30 minutes after the administration of the cold medicament. After pre-anesthesia with an appropriate concentration of isoflurane/oxygen mixed gas prior to scanning, the animals were placed in a MicroPET/CT imaging cabin (SNPC-303 SuperNova, Pingsheng Medical Technology (Kunshan) Co., Ltd.), and anesthesia was maintained with isoflurane/air mixed gas. A MicroPET/CT scan was performed 1 hour after the administration of the hot medicament. The scanned images were obtained after reconstruction by means of the device software, and the scanned images were analyzed using PMOD software.

Question: `NS(=O)(=O)c1nnc(NC(=O)CCCc2cn(CCCCC(=O)N[C@@H](CC(=O)O)C(=O)NCCCCNC(=O)CN3CCN(CC(=O)O)CCN(CC(=O)O)CC3)nn2)s1` [NYM005] was tested. Which “blocking of 68Ga-NYM005 uptake of the tumor by cold medicament” value did it give?
Answer: Its value is “significantly block”.
